For assay [1], the system named is IL-2-induced JAK1/JAK3 signal pathway. Kind of assay: IL-2-induced proliferation of KHYG-1 cells (JAK1/JAK3 signal). It is filed as cell-based, human. As to conditions: Homo sapiens, read-out: Inhibition activity IC50 on IL-2-induced JAK1/JAK3 signal pathway. From the text: The main physiological function of cytokine IL-2 is to stimulate and maintain the proliferation and differentiation of T cells. Generally, IL-2 dependent T cells cannot survive in in-vitro culture for a long time, but the addition of IL-2 can make them continue to proliferate. The signal pathway induced by IL-2 coupling with its receptor is mediated by JAK1/JAK3-STAT5, so the inhibitor of JAK1 and/or JAK3 can inhibit the proliferation of IL-2 dependent cells.
Human natural killer cell lymphoma cell line KHYG-1 was commercially available from Health Science Research Resources Bank (HSRRB), and relevant culture conditions referred to those from HSRRB.
The inhibition rate of the tested compound on IL-2-induced cell proliferation was calculated using Microsoft Excel.
After culture at 37° C. and 5% CO2 for 72 hours, alamarBlue™ Cell Viability Reagent was added to each well following the instructions.
The well in which neither compound nor cytokine was added was designated as 0% control well, and the fluorescence value in the wells in which the final concentration of compound was 0 was designated as 100% control. The inhibition activity […] of the tested compound on JAK1/JAK3 could be calculated from the inhibition rate of the tested compound on IL-2-induced cell proliferation at different doses.

The test system of assay [2] is EPO-induced JAK2 signal pathway. Kind of assay: EPO-induced proliferation of UT-7 cells (JAK2 signal). It is filed as cell-based, human. To be noted: Homo sapiens, UT7; UT-7 cell proliferation, EPO 10 ng/mL, 72 hours; read-out: Inhibition activity IC50 on EPO-induced JAK2 signal pathway. The method, then: The cytokine EPO, i.e. erythropoietin, can promote the proliferation and division of erythroid progenitor cells, and the signal pathway induced by EPO coupling with its receptor is mediated by JAK2-STAT5.
Human promegakaryocytic leukemia cell line UT-7 was commercially available from Cell Resource Center, Institute of Basic Medicine, Chinese Academy of Medical Sciences. The culture medium was RPIM1640 containing 10% FBS, and EPO was added for a final concentration of 10 ng/mL.
The inhibition rate of the tested compound on EPO-induced cell proliferation was calculated using Microsoft Excel.
UT-7 cell line was inoculated in 96-well plate with flat bottom at 15000 cells per well, each well was added with 10 ng/mL of human recombinant EPO (Human EPO PEPROTECH 100-64-10UG), along with tested compound respectively for a final concentration of 0, 100, 1000 or 10000 nM. After culture at 37° C. and 5% CO2 for 72 hours, alamarBlue™ Cell Viability Reagent was added to each well following the instructions. After incubation at 37° C. for color reaction, the fluorescence value at Ex530/Em590 was detected using Tecan Spark™ 10M multimode microplate reader.
The well in which neither compound nor cytokine was added was designated as […], and the fluorescence value in the wells in which the final concentration of compound was 0 was designated as 100 control. The inhibition activity […] ofthe tested compound on JAK2 could be calculated from the inhibition rate ofthe tested compound on EPO-induced cell proliferation at different doses.

Setting [3] is: KHYG-1 cell proliferation, IL-2 10 ng/mL, 72 hours.

Where two headings read alike, the source gives them in different places.

Consider `CONC(=O)c1cnc(NC(=O)C2CC2)cc1Nc1ccccc1S(C)(=O)=O` [Example 89], for which the IC50 in assay [1] (setting [3]) and in assay [2] was over 10 µM in each case.
With `CONC(=O)c1cnc(Nc2ccc(F)cn2)cc1Nc1cnccc1N(C)S(C)(=O)=O` [Example 58, 6-((5-fluoropyridin-2-yl)amino)-N-methoxy-4-((4-(N-methylmethanesulfonamido)pyridin-3-yl)amino)nicotinamide], the IC50 in assay [1] (setting [3]) and in assay [2] was over 10 µM throughout.
Consider `CONC(=O)c1cnc(NC(=O)C2CC2)cc1Nc1cccnc1N(C)S(C)(=O)=O` [Example 35, 6-(cyclopropylcarboxamido)-N-methoxy-4-((2-(N-methylmethanesulfonamido)pyridin-3-yl)amino)nicotinamide], for which the IC50 in assay [1] (setting [3]) and in assay [2] was over 10 µM in each case.
Take `CCONC(=O)c1cnc(Nc2cc(C)nc(C)n2)cc1Nc1cccc(-c2cnn(C)c2)c1OC` [Example 25, 6-((2,6-dimethylpyrimidin-4-yl)amino)-N-ethoxy-4-((2-methoxy-3-(1-methyl-1H-pyrazol-4-yl)phenyl)amino)nicotinamide]: the IC50 in assay [1] (setting [3]) and in assay [2] was over 10 µM each time.
For the compound `CONC(=O)c1c(Nc2ccc(C3CC3)cc2N(C)S(C)(=O)=O)cc(Nc2cccc(F)n2)nc1C` [Example 67, 4-((4-cyclopropyl-2-(N-methylmethanesulfonamido)phenyl)amino)-6-((6-fluoropyridin-2-yl)amino)-N-methoxy-2-methyl nicotinamide], the IC50 in assay [1] (setting [3]) and in assay [2] was over 10 µM in each case.
As for `CCONC(=O)c1cnc(Nc2nc(C)cs2)cc1Nc1ccc(C)cc1N(C)S(C)(=O)=O` [Example 165, N-ethoxy-4-((4-methyl-2-(N-methylmethanesulfonamido)phenyl)amino)-6-((4-methylthiazol-2-yl)amino)nicotinamide], the IC50 in assay [1] (setting [3]) and in assay [2] was over 10 µM each time.
In the case of `CONC(=O)c1cnc(Nc2cccnc2OC)cc1Nc1ccccc1N(C)S(C)(=O)=O` [Example 5], the IC50 in assay [1] (setting [3]) and in assay [2] was over 10 µM in each case.
For the compound `CCONC(=O)c1cnc(NC(=O)C2CC2)cc1Nc1cccc(-c2cnn(C)c2)c1OC` [Example 26, 6-(cyclopropylcarboxamido)-N-ethoxy-4-((2-methoxy-3-(1-methyl-1H-pyrazol-4-yl)phenyl)amino)nicotinamide], the IC50 in assay [1] (setting [3]) and in assay [2] was over 10 µM throughout.
As to `CCONC(=O)c1cnc(Nc2ccccn2)cc1Nc1cc(F)c(C2CC2)cc1N(C)S(C)(=O)=O` [Example 96, 4-((4-cyclopropyl-5-fluoro-2-(N-methylmethanesulfonamido)phenyl)amino)-N-ethoxy-6-(pyridin-2-ylamino)nicotinamide], the IC50 in assay [1] (setting [3]) and in assay [2] was over 10 µM each time.
Take `CONC(=O)c1cnc(NC(=O)C2CC2)cc1Nc1cccc(-c2cnn(C)c2)c1OC(F)F` [Example 54, 6-(cyclopropylcarboxamido)-4-((2-(difluoromethoxy)-3-(1-methyl-1H-pyrazol-4-yl)phenyl)amino)-N-methoxy nicotinamide]: the IC50 in assay [1] (setting [3]) and in assay [2] was over 10 µM throughout.
Regarding `CCONC(=O)c1cnc(Nc2ccc(C)nc2)cc1Nc1ccc(C2CC2)cc1N(C)S(C)(=O)=O` [Example 148, 4-((4-cyclopropyl-2-(N-methylmethanesulfonamido)phenyl)amino)-N-ethoxy-6-((6-methylpyridin-3-yl)amino)nicotinamide], the IC50 in assay [1] (setting [3]) and in assay [2] was over 10 µM each time.
Consider `CONC(=O)c1cnc(NC(=O)C2CC2)cc1Nc1cnccc1N(C)S(C)(=O)=O` [Example 56, 6-(cyclopropylcarboxamido)-N-methoxy-4-((4-(N-methylmethanesulfonamido)pyridin-3-yl)amino)nicotinamide], for which the IC50 in assay [1] (setting [3]) and in assay [2] was over 10 µM in each case.
In the case of `CCONC(=O)c1cnc(Nc2cc(C)ccn2)cc1Nc1ccc(C2CC2)cc1N(C)S(C)(=O)=O` [Example 147, 4-((4-cyclopropyl-2-(N-methylmethanesulfonamido)phenyl)amino)-N-ethoxy-6-((4-methylpyridin-2-yl)amino)nicotinamide], the IC50 in assay [1] (setting [3]) and in assay [2] was over 10 µM throughout.
As to `CONC(=O)c1cnc(NC(=O)C2CC2)cc1Nc1ccccc1OC1COC1` [Example 39, 6-(cyclopropylcarboxamido)-N-methoxy-4-((2-(oxetan-3-yloxy)phenyl)amino)nicotinamide], the IC50 was over 10 µM in assay [1] (KHYG-1, 72 h) and over 10 µM in assay [2].
As to `CONC(=O)c1cnc(Nc2cccc(F)n2)cc1Nc1ccc(C(F)(F)F)cc1N(C)S(C)(=O)=O` [Example 11, 6-((6-fluoropyridin-2-yl)amino)-N-methoxy-4-((2-(N-methylmethanesulfonamido)-4-(trifluoromethyl)phenyl)amino)nicotinamide], the IC50 in assay [1] (setting [3]) and in assay [2] was over 10 µM in each case.
Regarding `CCONC(=O)c1cnc(NC(=O)C2CC2)cc1Nc1cc(Cl)c(C2CC2)cc1N(C)S(C)(=O)=O` [Example 150, 4-((5-chloro-4-cyclopropyl-2-(N-methylmethanesulfonamido)phenyl)amino)-6-(cyclopropylcarboxamido)-N-ethoxy nicotinamide], the IC50 in assay [1] (setting [3]) and in assay [2] was over 10 µM in each case.
In the case of `CCONC(=O)c1cnc(Nc2ccn(C)n2)cc1Nc1ccc(N2CCOCC2)cc1N(C)S(C)(=O)=O` [Example 137], the IC50 in assay [1] (setting [3]) and in assay [2] was over 10 µM throughout.
Regarding `CONC(=O)c1cnc(Nc2cccc(F)n2)cc1Nc1cccc(C2CC2)c1N(C)S(C)(=O)=O` [Example 86], the IC50 in assay [1] (setting [3]) and in assay [2] was over 10 µM throughout.
Regarding `CONC(=O)c1cnc(Nc2ccc(F)cn2)cc1Nc1cccc(Cl)c1N(C)S(C)(=O)=O` [Example 77, 4-((3-chloro-2-(N-methylmethanesulfonamido)phenyl)amino)-6-((5-fluoropyridin-2-yl)amino)-N-methoxy nicotinamide], the IC50 in assay [1] (setting [3]) and in assay [2] was over 10 µM each time.
Take `CCONC(=O)c1cnc(Nc2nccs2)cc1Nc1ccc(C2CC2)cc1N(C)S(C)(=O)=O` [Example 158, 4-((4-cyclopropyl-2-(N-methylmethanesulfonamido)phenyl)amino)-N-ethoxy-6-(thiazol-2-ylamino)nicotinamide]: the IC50 in assay [1] (setting [3]) and in assay [2] was over 10 µM each time.
Consider `CONC(=O)c1cnc(Nc2ccc(F)cc2)cc1Nc1ccc(C)nc1N(C)S(C)(=O)=O` [Example 64, 6-((4-fluorophenyl)amino)-N-methoxy-4-((6-methyl-2-(N-methylmethanesulfonamido)pyridin-3-yl)amino)nicotinamide], for which the IC50 in assay [1] (setting [3]) and in assay [2] was over 10 µM throughout.
`CCONC(=O)c1cnc(Nc2cnn(C)c2)cc1Nc1ccc(C2CC2)cc1N(C)S(C)(=O)=O` [Example 140, 4-((4-cyclopropyl-2-(N-methylmethanesulfonamido)phenyl)amino)-N-ethoxy-6-((1-methyl-1H-pyrazol-4-yl)amino)nicotinamide]: the IC50 in assay [1] (setting [3]) and in assay [2] was over 10 µM in each case.
As to `CONC(=O)c1cnc(Nc2cccc(F)n2)cc1Nc1ccccc1OC1COC1` [Example 40], the IC50 in assay [1] (setting [3]) and in assay [2] was over 10 µM each time.
With `CC(C)ONC(=O)c1cnc(Nc2cccc(F)n2)cc1Nc1ccc(C2CC2)cc1N(C)S(C)(=O)=O` [Example 23, 4-((4-cyclopropyl-2-(N-methylmethanesulfonamido)phenyl)amino)-6-((6-fluoropyridin-2-yl)amino)-N-isopropoxy nicotinamide], the IC50 in assay [1] (setting [3]) and in assay [2] was over 10 µM each time.
`CONC(=O)c1cnc(NC(=O)C2CC2)cc1Nc1cccc(-c2nc3ccccc3n2C)c1OC` [Example 3, 6-(cyclopropylcarboxamido)-N-methoxy-4-((2-methoxy-3-(1-methyl-1H-benzo[d]imidazol-2-yl)phenyl)amino)nicotinamide]: the IC50 in assay [1] (setting [3]) and in assay [2] was over 10 µM throughout.

These data come from patent US20240101548A1, “HYDROXAMATE COMPOUND, PREPARATION METHOD THEREFOR AND APPLICATION THEREOF” (SHENZHEN CHIPSCREEN BIOSCIENCES CO., LTD., priority 2020, published 2024).
